Laboratory results: PubChem BioAssay AID1419 (Emory University Molecular Libraries Screening Center, 2008)
pIC50: −log10 of the molar value. The source made the active and inactive calls. How the calls were made is not given here.

Test: EBV protein-peptide binding inhibitors, dose response, biochemical, fluorescence polarization (AID 1419)
Conditions: cell-free protein-peptide binding, 2 h; for fold change: measured here: P channel fold over control, at 54 µM

Row | Compound | pIC50 | fold change | IC50
1 | Cc1ccc(N2C(=O)c3cccc4c(N5CCN(C)CC5)ccc(c34)C2=O)c2cccnc12 | > 6.38 | 31.9 | 
2 | CCOC(=O)c1c(=O)n(O)c2ccc(OC)cc2[n+]1[O-] | 5.09 | 1.8 | 
3 | CC(=O)Nc1ccc(N2CCc3c(C)c(C#N)c4nc5ccccc5n4c32)cc1 |  | 3.39 | > 54 µM (inactive)
4 | CCN(CC)c1ccc(/C=c2/sc3nnc(-c4ccccc4C)n3c2=O)cc1 | 5.47 | 17.4 | 
5 | COc1ccc(/C=C2\CCCc3c2nc2ccccc2c3C(=O)O)cc1OC | > 6.38 | 20.3 | 
6 | O=C(/C(=C(\[O-])c1ccccc1)[n+]1ccc2ccccc2c1)c1ccccc1 | 5.37 | 3.02 | 
7 | CCCCC1=CC2=C(c3ccco3)C(=O)C(C)(OC(=O)c3ccc(OC)cc3)C(=O)C2=CN1CCc1ccccn1 (stereo unspecified) |  | 1.16 | > 54 µM (inactive)
8 | CCOc1cc(C=C2C(=O)c3ccccc3C2=O)ccc1OCC(=O)Nc1ccc(C)cc1 | 5.66 | 11.6 | 
9 | C=CCOc1cccc(C2C(C(=O)c3ccc(C)o3)=C(O)C(=O)N2c2nccs2)c1 (stereo unspecified) | > 6.38 | 4.84 | 
10 | COC(=O)C[n+]1cccc2ccccc21 | 5.80 | 14.8 | 
11 | C=CCN1C(=O)/C(=C/c2ccc(N(C)C)cc2)S/C1=N\c1nnc(CC)s1 | 5.02 | 10.2 | 
12 | Cc1nc2nc(-c3cccs3)cn2nc1C | 5.73 | 6.46 | 
13 | CC(C)NC(=O)c1sc2nc(-c3cccs3)cc(-c3cccs3)c2c1N | 5.68 | 15.4 | 
14 | CC1=CC(=C(C#N)c2nc3ccccc3s2)C=C(C)N1c1ccc(F)cc1 | 5.15 | 38.9 | 
15 | COc1ccc(NC(=O)Cn2ncc(Cl)c(Cl)c2=O)cc1S(=O)(=O)N1CCOCC1 |  | 0.96 | > 54 µM (inactive)
16 | O=C1CCC(=O)N1c1nc2n(n1)C(c1ccccc1)C=C(c1ccc(Br)cc1)N2 (stereo unspecified) |  | 1.53 | > 54 µM (inactive)
17 | COc1ccccc1NC(=O)/C(C#N)=C/c1cc([N+](=O)[O-])ccc1N1CCCC1 | 5.33 | 60.1 | 
18 | Cc1cc(Br)c2nc3c(c(C(=O)O)c2c1)CCCCC3 |  | 1.06 | > 54 µM (inactive)
19 | Cc1ccc(S(=O)(=O)C(C#N)c2nc3ccccc3nc2N2CCCC2)cc1C (stereo unspecified) |  | 1.26 | > 54 µM (inactive)
20 | O=C(Cn1cc2c(n1)CCCC2)NCc1ccccn1 | 4.59 | 1.54 | 

Row | Compound | pIC50 | fold change | IC50
21 | O=[N+]([O-])c1cccc(-c2cn3nc(-c4ccccc4)c(-c4ccccc4)nc3n2)c1 | 5.24 | 6.61 | 
22 | Cc1ccccc1C(=O)Nc1ccc2c(C#N)c3nc4ccccc4nc3n2c1 | 4.86 | 0.993 | 
23 | CCOCCCn1c(=NC(=O)c2cccs2)c(C#N)cc2c(=O)n3cccc(C)c3nc21 | 5.12 | 4.61 | 
24 | Cc1nc(Cl)c2c(n1)NC1=C(O2)C(=O)CCC1 | 6.07 | 22.3 | 
25 | Cc1ccc(N=Nc2c(N)[nH]n3c(=O)cc(-c4ccccc4)nc23)cc1 |  | 1.02 | > 54 µM (inactive)
26 | O=C(COC(=O)c1cccnc1)NC1CCCc2ccccc21 (stereo unspecified) |  | 1.84 | > 54 µM (inactive)
27 | Cc1cc(C(F)(F)F)n2nc(-c3sccc3-n3cccc3)cc2n1 |  | 0.957 | > 54 µM (inactive)
28 | O=C1c2ccccc2-c2ncnc3c(N4CCOCC4)cc(N4CCOCC4)c1c23 |  | 1.1 | > 54 µM (inactive)
29 | COc1ccc(C2C(C(=O)c3cccs3)=C(O)C(=O)N2c2nncs2)cc1 (stereo unspecified) | > 6.38 | 13 | 
30 | O=C(CSc1nc(-c2ccc(F)cc2)nc2c1Cc1ccccc1O2)Nc1cccc(C(=O)O)c1 | 5.79 | 1.13 | 
31 | Cc1ccc(C2C3=C(CCCC3=O)Nc3[nH]c(=S)[nH]c(=O)c32)cc1 (stereo unspecified) |  | 0.983 | > 54 µM (inactive)
32 | O=C(Nc1ccc(-n2cnnn2)cc1)C1CCC1 |  | 0.983 | > 54 µM (inactive)
33 | CCCCCn1c(N)c(-c2nc3ccccc3o2)c2c([N+](=O)[O-])nn(CC)c(=O)c21 |  | 0.747 | > 54 µM (inactive)
34 | O=c1c(O)cccc2cc(O)c(O)c(O)c12 | 5.55 | 1.86 | 
35 | O=C(N=Nc1c(O)[nH]c2ccccc12)c1cc(-c2cccs2)[nH]n1 | 4.71 | 0.72 | 
36 | C#CCOC(=O)/C(=C/C=C/c1ccccc1)NC(=O)c1ccccc1 |  | 1.01 | > 54 µM (inactive)
37 | O=C(N/N=C/c1cc(Cl)cc(Cl)c1O)c1ccncc1 | 5.74 | 5.72 | 
38 | O=C(C1=NN(c2ccccc2)C2C(=O)N(c3ccc(Cl)cc3)C(=O)C12)c1ccccc1 (stereo unspecified) |  | 5.95 | > 54 µM (inactive)
39 | COc1ccc(-n2c(C)cc(/C=C3\SC(=S)N(Cc4ccco4)C3=O)c2C)cc1 | 5.14 | 5.18 | 
40 | c1ccc2c(c1)CCCN2Cc1nnnn1CC1CCCO1 (stereo unspecified) | 5.30 | 2.55 | 

Row | Compound | pIC50 | fold change | IC50
41 | O=[N+]([O-])c1ccc(/C=C/c2nc3ccc([N+](=O)[O-])cc3[nH]2)cc1 | 5.61 | 1.15 | 
42 | Nc1ccc(-c2nc3ccc(C(=O)O)cc3s2)cc1 |  | 1 | > 54 µM (inactive)
43 | COC(=O)c1cc2c(-c3ccccc3)cc3ccccn3c-2c1C(=O)OC | 4.57 | 1.65 | 
44 | O=C(CSc1n[nH]c(=O)[nH]c1=O)Nc1ccc2c(c1)C(=O)c1ccccc1C2=O | 5.03 | 1.21 | 
45 | CCN(CC)c1ccc2c(c1)oc(=O)c1c(Cl)cc(=O)oc12 | 5.20 | 11.9 | 
46 | Cn1c(=O)c(Nc2ccc(O)cc2)c2c3c(cccc31)C(=O)c1ccccc1-2 | > 6.38 | 3.86 | 
47 | O=C(NNC1=Nc2cccc3cccc1c23)c1ccc(Br)cc1 |  | 3.27 | > 54 µM (inactive)
48 | COc1ccc(OC)c(/C=c2\sc3nc(-c4cccs4)nn3c2=O)c1 | 5.22 | 5.71 | 
49 | COc1ccc2nc(C)cc(N3CCOCC3)c2c1 |  | 1.04 | > 54 µM (inactive)
50 | Cc1ccc(C)c2nc3sc(C(=O)N4CCCc5ccccc54)c(N)c3cc12 | 5.91 | 11.6 | 
51 | CCCSCCCNC(=O)CC1Oc2ccccc2NC1=O (stereo unspecified) |  | 1.09 | > 54 µM (inactive)
52 | O=C1CCNc2c(Cl)cc(Cl)cc21 | 4.96 | 2.51 | 
53 | COc1ccc(C(CC(=O)N2CCCC2)c2c(OC)cc(OC)c3c(-c4ccccc4)cc(=O)oc23)cc1 (stereo unspecified) |  | 0.95 | > 54 µM (inactive)
54 | COC(=O)c1ccc2c(=O)sc(N3CCC(C(N)=O)CC3)nc2c1 | 5.40 | 2.35 | 
55 | Oc1[nH]c2ccccc2c1N=Nc1ccccc1 | 4.73 | 21.6 | 
56 | Cc1ccc[n+](-c2nc([O-])sc2C=O)c1 | 6.19 | 44.1 | 
57 | COc1ccc2c(C=Nc3c(C)n(C)n(-c4ccccc4)c3=O)c(O)n(Cc3ccco3)c(=O)c2c1 | 5.37 | 3.39 | 
58 | CC(C)C[C@H]1C(=O)N2CCCC2[C@]2(O)O[C@](NC(=O)[C@@H]3C=C4c5cccc6[nH]cc(c56)CC4N(C)C3)(C(C)C)C(=O)N12 (stereo partly specified) | 5.07 | 2.39 | 
